Laboratory results taken from patent publication US6881741B2 (ViroChem Pharma Inc., priority 2001, dated 2005).
Like-named read-outs stand apart in the source and are kept apart here.

Columns and labels:
[1] = target: recombinant HCV NS5B (HCV RNA-dependent RNA polymerase) (Hepatitis C virus genotype 1b, UniProt P26663); experiment: biochemical
[2] = target: T1, HCV NS3 enzyme (ATPase activity of HCV NS3 helicase) (Hepatitis C virus genotype 1b, UniProt P26663); experiment: ATPase activity of HCV NS3 helicase, Malachite Green Assay; type: biochemical; settings: free inorganic phosphate release, 30 min at 37 C, 200 μM ATP, 3 nM enzyme, read-out: Anti-ATPase (Malachite Green assay) EC50
T1 sequence (P26663 1027-1657 limits assumed): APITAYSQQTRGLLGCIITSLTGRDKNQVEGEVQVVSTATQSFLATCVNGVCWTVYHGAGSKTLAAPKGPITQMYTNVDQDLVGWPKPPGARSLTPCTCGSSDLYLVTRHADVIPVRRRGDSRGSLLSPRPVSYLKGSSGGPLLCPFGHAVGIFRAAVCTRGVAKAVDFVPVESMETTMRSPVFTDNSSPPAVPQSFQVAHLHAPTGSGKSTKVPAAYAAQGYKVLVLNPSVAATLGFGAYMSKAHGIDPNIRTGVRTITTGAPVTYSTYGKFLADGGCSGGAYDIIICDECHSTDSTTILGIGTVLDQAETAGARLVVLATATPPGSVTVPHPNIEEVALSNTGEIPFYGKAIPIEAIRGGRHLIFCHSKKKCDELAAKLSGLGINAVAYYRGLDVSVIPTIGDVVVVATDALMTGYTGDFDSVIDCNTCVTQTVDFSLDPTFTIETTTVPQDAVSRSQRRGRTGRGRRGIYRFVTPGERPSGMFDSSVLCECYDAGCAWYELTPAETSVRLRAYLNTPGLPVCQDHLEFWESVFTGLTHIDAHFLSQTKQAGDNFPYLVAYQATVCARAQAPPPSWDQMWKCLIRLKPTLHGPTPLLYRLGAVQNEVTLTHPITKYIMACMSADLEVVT
Experimental: (§1) Evaluation of Analogues for measurement of ATPase activity of HCV NS3 helicase
The measurement of ATPase activity was performed by measuring the amount of free inorganic phosphate released during the conversion of ATP to ADP by the HCV NS3 ATPase activity. The assay is as follows: In a 96-well microtiter-plate, compounds were dissolved at various concentrations in a final volume of 25 μl of ATPase buffer containing 400 μM ATP. The enzymatic reaction was initiated by the addition of 25 μl of ATPase buffer containing 6 nM of HCV NS3 enzyme without ATP to the wells followed by an incubation of 30 min. at 37 C. Essentially, the final concentration of the ATPase buffer components are as follows: 44 mM MOPS pH 7.0, 8.8 mM NaCl, 2.2 mM MgCl2, 125 μg/ml poly A, 1% DMSO, 200 μM ATP, and 3 nM HCV NS3 enzyme. The reaction was stopped by the addition of 100 μl of Biomol Green™ reagent (BIOMOL® Research Laboratories Inc., Plymouth Meeting, Pa.). In order to allow the development of the green color, the plate was incubated for 15 min. at room temperature. Then the plate was read on a micro-plate reader at 620 nm. […] The signal recorded was also corrected from the background signal obtained with control samples with compound only. The IC50 was determined from dose-response curves using six to eight concentrations per compound. […]

[3] = target: T1, HCV NS3 enzyme (ATPase activity of HCV NS3 helicase); experiment: ATPase activity of HCV NS3 helicase, HPLC Assay; type: biochemical; settings: ADP produced measured by paired-ion HPLC, 1 nM enzyme, read-out: Anti-ATPase (HPLC method) EC50
Experimental: as §1
The measurement of HCV NS3 ATPase activity was performed by measuring the amount of ADP produced during the conversion of ATP to ADP by the HCV NS3 enzyme using paired-ion HPLC on a reverse phase column. […]. The mobile phase was an isocratic solution of 0.15 M triethylamine, 6% methanol, and phosphoric acid to pH 5.5. ADP and ATP peaks were resolved using the Aqua 5μ, C18, 125 Å, (150×4.6 mm) reverse phase column. The extent of ATP conversion to ADP was evaluated by measuring the area under the ADP peak produced which was detected at 259 nm. The amount of ADP was corrected for the presence of ADP contaminant in the original ATP solution. […] The IC50 was determined from dose-response curves using six to eight concentrations per compound. Curves were fitted to data points using a non-linear regression analysis, and IC50s were interpolated from the resulting curves using GraphPad Prism software, version 2.0 (GraphPad Software Inc, San Diego, Calif.).

[4] = related polymerase activity (Example 27 list), read-out: IC50

recombinant HCV NS5B (HCV RNA-dependent RNA polymerase), sequence (P26663 2420-3010 limits assumed): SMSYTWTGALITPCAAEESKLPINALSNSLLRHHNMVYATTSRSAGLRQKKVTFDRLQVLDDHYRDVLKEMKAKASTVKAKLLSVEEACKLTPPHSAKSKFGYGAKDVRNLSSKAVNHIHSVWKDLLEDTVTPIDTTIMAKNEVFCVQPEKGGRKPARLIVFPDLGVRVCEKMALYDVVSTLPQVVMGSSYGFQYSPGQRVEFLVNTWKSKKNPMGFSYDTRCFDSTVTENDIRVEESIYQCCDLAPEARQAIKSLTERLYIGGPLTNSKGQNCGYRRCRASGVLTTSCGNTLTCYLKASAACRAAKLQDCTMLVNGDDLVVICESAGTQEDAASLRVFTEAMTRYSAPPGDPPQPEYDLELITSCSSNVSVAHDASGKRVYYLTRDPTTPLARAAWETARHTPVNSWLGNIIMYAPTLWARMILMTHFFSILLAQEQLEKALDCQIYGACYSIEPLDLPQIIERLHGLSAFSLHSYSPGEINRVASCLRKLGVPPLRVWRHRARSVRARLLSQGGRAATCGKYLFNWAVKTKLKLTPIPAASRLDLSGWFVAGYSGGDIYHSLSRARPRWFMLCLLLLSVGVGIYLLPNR

Row | SMILES | IC50 [1, 4] | EC50 [2] | EC50 [3] | IC50 ([1]; HCV polymerase activity, list of compounds of Example 27, read-out: IC50 (polymerase activity))
1 | Cc1cc(S(=O)(=O)Nc2cc(-c3ccc(Cl)cc3)sc2C(=O)O)c(C)cc1Cl [Compound #14, 3-(4-Chloro-2,5-dimethyl-benzenesulfonylamino)-5-(4-chloro-phenyl)-thiophene-2-carboxylic acid] | < 5 µM | > 20 µM | – | –
2 | CC(C)Cc1ccc(-c2cc(NS(=O)(=O)c3ccc(Br)cc3F)c(C(=O)O)s2)cc1 [Compound #223, 3-(4-Bromo-2-fluorobenzenesulfonyl-amino)-5-(4-isobutylphenyl)-thiophene-2-carboxylic acid] | 5 to 20 µM | – | < 5 µM | –
3 | CC(C)Cc1ccc(-c2cc(NS(=O)(=O)c3ccc(C#N)cc3Cl)c(C(=O)O)s2)cc1 [Compound #228, 3-(2-Chloro-4-cyanobenzenesulfonyl-amino)-5-(4-isobutylphenyl)-thiophene-2-carboxylic acid] | > 20 µM | – | > 20 µM | –
4 | COc1cccc(S(=O)(=O)Nc2cc(-c3ccc(CC(C)C)cc3)sc2C(=O)O)c1 [Compound #225] | > 20 µM | – | > 20 µM | –
5 | Cc1cc(Br)ccc1S(=O)(=O)Nc1cc(-c2ccc(CC(C)C)cc2)sc1C(=O)O [Compound #224, 3-(4-Bromo-2-methylbenzenesulfonyl-amino)-5-(4-isobutylphenyl)-thiophene-2-carboxylic acid] | > 20 µM | – | 5 to 20 µM | –
6 | CC(C)Cc1ccc(-c2cc(NS(=O)(=O)c3cc(OCC(F)(F)F)ccc3OCC(F)(F)F)c(C(=O)O)s2)cc1 [Compound #227, 3-[2,5-Bis-(2,2,2-trifluoroethoxy)-benzenesulfonylamino]-5-(4-isobutyl-phenyl)-thiophene-2-carboxylic acid] | > 20 µM | – | > 20 µM | –
7 | Cc1cc(S(=O)(=O)Nc2cc(-c3ccc(CC(C)C)cc3)sc2C(=O)O)c(C)cc1Cl [Compound #19, 3-(4-Chloro-2,5-dimethyl-benzenesulfonylamino)-5-(4-isobutyl-phenyl)-thiophene-2-carboxylic acid] | 5 to 20 µM | < 5 µM | 5 to 20 µM | –
8 | CC(C)Cc1ccc(-c2cc(NS(=O)(=O)c3ccc(-c4cc(C(F)(F)F)on4)s3)c(C(=O)O)s2)cc1 [Compound #581, 5-(4-Isobutyl-phenyl)-3-[5-(5-trifluoromethyl-isoxazol-3-yl)-thiophene-2-sulfonylamino]-thiophene-2-carboxylic acid] | – | – | 5 to 20 µM | –
9 | CC(C)Cc1ccc(-c2cc(NS(=O)(=O)c3ccc(F)c(F)c3F)c(C(=O)O)s2)cc1 [Compound #582, 5-(4-Isobutyl-phenyl)-3-(2,3,4-trifluoro-benzenesulfonylamino)-thiophene-2-carboxylic acid] | – | – | > 20 µM | –
10 | Cc1cccc(CN(C(=O)C2CC2)c2cc(-c3ccccc3)sc2C(=O)O)c1 [Compound 466, 3-[CYCLOPROPANECARBONYL-(3- METHYL-BENZYL)-AMINO]-5-PHENYL- THIOPHENE-2-CARBOXYLIC ACID] | – | – | – | 5 to 20 µM
11 | O=C(O)c1sc(-c2ccccc2)cc1NS(=O)(=O)c1ccc(C(F)(F)F)cn1 [Compound 98, 5-PHENYL-3-(5-TRIFLUOROMETHYL-PYRIDINE-2-SULFONYLAMINO)-THIOPHENE-2-CARBOXYLIC ACID] | 5 to 20 µM | – | – | –
12 | O=C(Nc1cc(-c2ccccc2)sc1C(=O)O)Oc1ccc(Cl)cc1 [Compound 33, 3-(4-CHLORO-PHENOXYCARBONYLAMINO)-5-PHENYL-THIOPHENE-2-CARBOXYLIC ACID] | 5 to 20 µM | – | – | –
